Reference: US10314885B2, “Oxytocin treatment to modify blood glucose and treat metabolic disease” (The Regents of the University of California, priority 2010, dated 2019)
Marks after values point to notes of the source that are not given here.

Tests used:
Type in all cases: in vivo, human
[1] = Blood chemistry analysis and urine osmolality at endpoint
Protocol: (§1) Study Drugs. Subjects were maintained on their pre-study antipsychotic medication regimen and doses were not changed during the study. Subjects received 3-weeks of daily intranasal oxytocin (Syntocinin, Novartis, Basel Switzerland) and 3-weeks of daily intranasal placebo. Oxytocin was dosed at 20 IU (5 sprays) twice a day for the first week and 40 IU (10 sprays) twice a day thereafter. Order of treatment (placebo-oxytocin or oxytocin-placebo) was randomly assigned using a computer generated random sequence.
(§2) Safety was assessed at each visit by a medical exam, and assessments of reported adverse events. In addition, urine was collected for osmolality testing and blood was drawn at each visit and analyzed at UCSD laboratories for basic chemistry analysis. Statistical Methods. Data from all subjects who received at least one dose and one assessment in both treatment periods (intent-to-treat population) were subjected to analysisusing SPSS version 11.0. Baseline scores for both drug treatments were compared for similarity using paired t-test. The change in baseline scores from period 1 to period 2 was compared among the placebo-oxytocin versus oxytocin-placebo group using a two-sample t-test to assess for period carry-over effects. PANNS and CGI data were subjected to repeated measures ANOVA with drug and treatment-week as repeated measures factors. Treatment sequence was included as a between-subjects factor to evaluate possible period and carry-over effects. Paired t-tests, corrected for multiple-comparisons using Bonferoni method were used to compare placebo and oxytocin scores at endpoint and each the other assessment visits. Cohen's d statistic was calculated for each measure at endpoint.

[2] = tested on: Subjects with a DSM-IV diagnosis of schizophrenia; test: California Verbal Learning Test (CVLT-II)
Excerpt: (§3) Participants. Subjects with a DSM-IV diagnosis of schizophrenia, confirmed by SCID interview, were enrolled in a double-blind, placebo-controlled, crossover study. Other main inclusion criteria were: minimum 18 years of age, treatment with 1 or 2 approved antipsychotic medication with no dose changes in the previous four weeks, a minimum Positive and Negative Syndrome Scale (PANSS) score of at least 55 with a minimum score of 4 and a Clinical Global Impressions-Severity (CGI-S) scale score of at least 4 (moderately ill) at randomization.
(§4) Study Drugs. Subjects were maintained on a stable dose of their pre-study antipsychotic medication regimen. In addition to their antipsychotics, subjects received 3-weeks of daily intranasal oxytocin (Syntocinin, Novartis, Basel Switzerland) dosed 20 IU twice a day for the first week and then 40 IU twice a day for weeks two and three, and 3-weeks of daily intranasal placebo. Order of treatment (placebo-oxytocin or oxytocin-placebo) was randomly assigned using a computer generated random sequence.
Safety and efficacy assessments. Subjects, raters, and study staff enrolling patients were blinded to treatment condition. The total study duration for each individual subject was 7 weeks, which included a baseline visit (V1), a three-week initial treatment period, a 1 week washout (between V4 and V5), a repeat baseline visit, and a three-week crossover treatment period. Subjects received the cognitive tests a total of 3 times: at baseline visits (V1, and after 3 weeks of treatment with placebo and oxytocin (V4, V7).
The CVLT-II is a commonly-used test of new learning and declarative verbal memory, which closely resembles the HVLT (Hopkins Verbal Learning Test), a part of the standardized MATRICS cognitive battery, now used to measure cognitive changes in Schizophrenia clinical trials. In the CVLT-II, lists of 16 words (List A) from various semantic categories are read over 5 trials. After each trial, subject is asked to recall as many words as they can (free recall). An interference list (List B) is then presented. Free and cued recall of List A is measured immediately following (short delay) and 20 minutes (long delay). At the end of the test, a 44 word recognition task is performed with subjects identifying target words among 28 distractors. The CVLT's format allows assessment of multiple aspects of cognition: overall recall ability, rate of learning over sequential trials, ability to retain learned material, and item recognition.
For each subtest a two-factor repeated ANOVA with drug treatment (placebo/oxytocin) and order of treatment as factors was conducted.

[3] = tested on: Subjects with a DSM-IV diagnosis of schizophrenia; test: Letter Number Sequencing subtest (LNS) of WAIS-III; details: after 3 weeks of intranasal oxytocin
Excerpt: as §3
as §4, with “Order of treatment (placebo-oxytocin or oxytocin-placebo) was randomly assigned using a computer generated random sequence.” left out
The Letter Number Sequencing subtest (LNS) is a component of the larger WAIS-III and is used to measure attention and working memory. […] In each trial of the LNS, a list of letters and numbers are read in a mixed order to participants; participants are asked to recall first the digits and then the letters in the order they were presented. […] Scores are calculated by totaling the correct responses for each length. […]

[4] = tested on: Subjects with a DSM-IV diagnosis of schizophrenia; test: PANSS and CGI efficacy assessment, double-blind placebo-controlled crossover study of adjunctive intranasal oxytocin; details: for CGI-Severity score: Baseline of oxytocin arm (CGI-Severity, not CGI-Improvement); for CGI-I Cohen's d / PANSS Negative Cohen's d / PANSS Total Cohen's d: Week 3, oxytocin vs placebo; for PANSS Total Cohen's d: 0.2 small, 0.5 medium, 0.8 large
Excerpt: as §3, with “in this” for “in a”, “weeks,” for “weeks, a minimum”, “55” for “55 with a minimum score of 4”, “randomization. Because it was hypothesized that oxytocin may improve paranoia due to its pro-trust effect, subjects were also required to have a score of at least 4 (moderate) on item 6 (suspiciousness/persecution) of the PANSS. This study was approved by the UCSD IRB and written informed consent was obtained from all subjects.” for “randomization.”
as §1
Efficacy and Safety assessments. Subjects, raters and study staff enrolling patients were blinded to treatment condition. The total study duration for each individual subject was 7 weeks. Subjects were evaluated […]. Visit 1 and 5 were baseline assessments and visits 2, 3, 4 and 6, 7, 8 were the weekly visits for the two treatment periods, respectively. Washout occurred in the week between visit 4 and 5. At each visit raters assessed subjects utilizing the PANSS, CGI-S and CGI-Improvement (CGI-I). PANSS-total at the final visit of each treatment period was chosen a′ priori as the primary efficacy endpoint.
as §2

[5] = tested on: Subjects with a DSM-IV diagnosis of schizophrenia; test: Reported adverse events in the crossover study
Protocol: as §1, §2

[6] = after 3 weeks of intranasal oxytocin, Mean (S.E.M.)
[7] = Baseline of oxytocin arm, mean (SD)
[8] = Week 1, intranasal 20 IU twice a day, mean (SD)
[9] = Week 2, intranasal 40 IU twice a day, mean (SD)
[10] = Week 3, intranasal 40 IU twice a day, mean (SD)
[11] = 3 weeks intranasal oxytocin, 15 completers

measured blood chemistry or urine osmolality, oxytocin versus placebo ([1]; at endpoint): no significant differences | BUN ([1]; blood, at endpoint): 10.8 mg/dL | Bicarb. ([1]; blood, at endpoint): 27.9 mmol/L | Calcium ([1]; blood, at endpoint): 9.3 mg/dL | Chloride ([1]; blood, at endpoint): 101.1 mmol/L | Creatinine ([1]; blood, at endpoint): 0.9 mg/dL | Potassium ([1]; blood, at endpoint): 4.4 mmol/L | Sodium ([1]; blood, at endpoint): 138.5 mmol/L | Urine Osmolality ([1]; urine, at endpoint): 607.9 mOsm/kg
SMILES: CC[C@H](C)[C@@H]1NC(=O)[C@H](Cc2ccc(O)cc2)NC(=O)[C@@H](N)CSSC[C@@H](C(=O)N2CCC[C@H]2C(=O)N[C@@H](CC(C)C)C(=O)NCC(N)=O)NC(=O)[C@H](CC(N)=O)NC(=O)[C@H](CCC(N)=O)NC1=O [Oxytocin, Cys-Tyr-Ile-Gln-Asn-Cys-Pro-Leu-Gly]
Glucose ([1]; blood, at endpoint (week 3)): 112.5 mg/dL | blood glucose levels compared to placebo ([1]; intranasal administration): reduction in blood glucose levels | CVLT Long Delay Cued Recall Raw [2, 6]: 11.87 (0.97) | CVLT Long Delay Free Recall Raw [2, 6]: 10.87 (0.87) | CVLT Short Delay Cued Recall Raw [2, 6]: 12.00 (0.79) | CVLT Short Delay Free Recall Raw [2, 6]: 10.60 (1.03) | CVLT Total Intrusions Raw [2, 6]: 4.93 (1.90) | CVLT Total Recall Discriminability Raw [2, 6]: 2.22 (0.19) | CVLT Total Recognition Discriminability Raw [2, 6]: 2.97 (0.28) | CVLT Total Repetitions Raw [2, 6]: 13.67 (5.44) | CVLT Trials 1-5 Raw [2, 6]: 55.67 (3.65) | CVLT subscale scores, oxytocin versus placebo ([2]; all 9 subscales, after 3 weeks): scored higher | scores on the LNS, oxytocin versus placebo [3]: no significant difference | reduction on the PANSS-total ([4]; 3 weeks of treatment vs baseline (placebo 3.0 points)): 7.9 point | CGI-Severity score ([4]; mean (SD)): 4.67 (0.61)^ | CGI-Severity score ([4]; mean (SD), listed as oxytocin): 4.67±0.74 | PANSS Gen. Psy. score [4, 7]: 38.8 (7.6) | PANSS Negative score [4, 7]: 20.2 (4.7) | PANSS Positive score [4, 7]: 21.7 (4.1) | PANSS Total score ([4]; Baseline of oxytocin arm, mean (standard deviation)): 81.5 (12.4) | PANSS Total score ([4]; Baseline of oxytocin arm, mean (standard deviation), listed as oxytocin): 81.4±12.43 | PANSS Total score ([4]; Week 1, intranasal 20 IU twice a day, adjunctive to antipsychotics, mean (SD)): 76.3 (11.3) | CGI-I score [4, 8]: 3.33 (0.62) | PANSS Gen. Psy. score [4, 8]: 36.4 (8.1) | PANSS Negative score [4, 8]: 20.1 (4.8) | PANSS Positive score [4, 8]: 20.6 (4.5) | PANSS Total score ([4]; Week 2, intranasal 40 IU twice a day, adjunctive to antipsychotics, mean (SD)): 76.9 (13.2) | CGI-I score [4, 9]: 3.33 (1.20) | PANSS Gen. Psy. score [4, 9]: 36.3 (8.2) | PANSS Negative score [4, 9]: 19.7 (4.3) | PANSS Positive score [4, 9]: 20.5 (4.6) | PANSS Total score ([4]; Week 3 (endpoint), intranasal 40 IU twice a day, adjunctive to antipsychotics, mean (SD)): 73.6 (13.6)** | CGI-I Cohen's d [4]: [0.74] | PANSS Negative Cohen's d [4]: [0.50] | PANSS Total Cohen's d [4]: [0.43] | PANSS Total Cohen's d ([4]; listed as oxytocin): 0.43 | CGI-I Cohen's d ([4]; listed as oxytocin): 0.74 | PANSS Negative Cohen's d ([4]; listed as oxytocin): 0.50 | CGI-I score [4, 10]: 3.07 (0.70)** | PANSS Gen. Psy. score [4, 10]: 34.8 (6.9) | PANSS Negative score [4, 10]: 18.5 (4.5)* | PANSS Positive score [4, 10]: 19.9 (5.2)** | PANSS general psychopathology subscale, oxytocin versus placebo ([4]; any time point): not significantly different | PANSS-total difference oxytocin versus placebo ([4]; baseline): 0.60 | PANSS-total scores, oxytocin versus placebo ([4]; endpoint (week 3) visit, p<0.001): significantly lower | PANSS-total difference oxytocin versus placebo ([4]; endpoint (week 3), p<0.001): 5.46 | PANSS-total difference oxytocin versus placebo ([4]; week 1): 0.60 | PANSS-total difference oxytocin versus placebo ([4]; week 2): 1.20 | CGI-I, oxytocin versus placebo ([4]; week 3, P<0.001): significantly lower | PANSS positive subscale scores, oxytocin versus placebo ([4]; week 3, P=0.006): significantly lower | PANSS negative subscale scores, oxytocin versus placebo ([4]; week 3, p=0.023): significantly lower | rates of reported adverse effects, oxytocin compared to placebo ([5]; 3 weeks each treatment): no significant differences | serious adverse events reported during the study ([5]; 3 weeks intranasal oxytocin twice daily): no serious adverse events | Dizzy or lightheaded, subjects reporting [5, 11]: 26.7% | Dyspepsia or nausea, subjects reporting [5, 11]: 26.7% | Headache, subjects reporting [5, 11]: 26.7% | Lethargy, subjects reporting [5, 11]: 0.0% | Nasal Irritation, subjects reporting [5, 11]: 26.7% | Sleep impairment, subjects reporting [5, 11]: 33.3% | tolerability ([5]; given twice daily for three weeks): well-tolerated
